Assay results: patent publication US12048737B2, “Use of a vaccine targeting a cryptic tert epitope, for treating cancer in a HLA-A*0201-positive patient having a non-immunogenic tumor expressing tert” (KRIPTIC PHARMACEUTICALS LIMITED, priority 2017, dated 2024)
Where “and” joins values, the source holds several entries; their conditions need not be identical. Equal entries are not always repeated.

System: NSCLC tumors expressing TElomerase Reverse Transcriptase (TERT)
Assay: Vx-001-201 randomized double blind phase IIb study: clinical outcome (OS, TTF, 12 months survival)
Format: in vivo, human
Conditions: without natural immunity; for HR (TTF) / HR (OS): Vx-001 vs placebo
Source text: The Vx-001-201 study is a randomized, double blind multicenter study done in 70 centers in France, Germany, Spain, Italy, Greece, Poland, Romania and Czech Republic. Key eligibility criteria were a) non small cell lung cancer (NSCLC), b) stage IV or recurrent stage I-III, c) disease control after platinum based first line chemotherapy according to RECIST 1.1 criteria, d) HLA-A*0201 positivity, e) tumors expressing TElomerase Reverse Transcriptase (TERT), f) ECOG 0 or 1 g) absence of brain metastasis.
• a) Principal endpoint: overall survival (OS) measured from randomization • b) Secondary endpoints: • Time to Treatment Failure (TTF) measured from randomization • OS at 12 months • c) Main exploratory objectives • Evaluation of vaccine induced specific immune response • Correlation between vaccine specific immune response and clinical response Procedures and Vaccination Protocol
Patients who fulfilled all inclusion criteria were randomized within 4 weeks after the end of first line chemotherapy.
The vaccination protocol consisted in six vaccinations at three week interval. The optimized Vx-001/TERT572Y was used in the first two vaccinations and the native Vx-001/TERT572 in the following four vaccinations. Patients who continued controlling their disease after the sixth vaccination received boost vaccination with the Vx-001/TERT572 every three months. Vaccination was stopped at disease progression (FIG. 1).
The primary and secondary endpoints were analysed in the Full Analysis Set (FAS) composed of all patients who fulfilled the five main criteria a) NSCLC, b) stage IV or recurrent stage I-III, c) disease control after first line chemotherapy, d) HLA-A*0201 positivity and e) TERT expressing tumors.
We used the Kaplan-Meier method to estimate OS and TTF in each arm and a Cox proportional hazards regression model to estimate Hazard Ratio (HR) relating OS and TTF to the treatment effect.

[1] = Former smoker (≤20 years) (never smoked or smokers less than 20 years)
[2] = Former smoker (≤25 years) (never smoked or smokers less than 25 years)
[3] = Heavy smoker (>25 years, former or current smoker)
[4] = NS or light smoker (≤25 years, former or current smoker)

Substance: Vx-001: vaccine composed of two nine amino acid peptides, TERT572 and TERT572Y, administered separately with the adjuvant Montanide ISA51 VG (chain 1 RLFFYRKSV; chain 2 YLFFYRKSV; Montanide ISA51 VG adjuvant; peptide from a human protein; optimized peptide)
- HR (TTF) (1st line CDDP (n = 46)): 0.67
- 12 months OS (<65 years (n = 59)): 53.6%
- Median TTF (<65 years (n = 59)): 3.5 months
- Median survival (OS) (<65 years (n = 59)): 12.7 months
- HR (OS) (<65 years (n = 59)): 1.00
- HR (TTF) (<65 years (n = 59)): 0.84
- 12 months OS (>65 years (n = 63)): 57.1%
- Median TTF (>65 years (n = 63)): 4.4 months
- Median survival (OS) (>65 years (n = 63)): 14.1 months
- HR (OS) (>65 years (n = 63)): 0.63
- HR (TTF) (>65 years (n = 63)): 0.65
- 12 months OS (Current smoker): 20%
- Median TTF (Current smoker): 4.4 months
- Median survival (OS) (Current smoker): 6.4 months
- HR (OS) (Current smoker): 1.3
- HR (TTF) (Current smoker): 0.70
- 12 months OS (Female (n = 33)): 52.9%
- Median TTF (Female (n = 33)): 4.6 months
- Median survival (OS) (Female (n = 33)): 12.7 months
- HR (OS) (Female (n = 33)): 1.24
- HR (TTF) (Female (n = 33)): 0.91
- Median TTF (Former smoker (<30 years)): 4.2 months
- HR (TTF) (Former smoker (<30 years)): 0.55
- Median TTF [1]: 5.6 months
- HR (TTF) [1]: 0.39
- Median TTF [2]: 5.6 months
- HR (TTF) [2]: 0.43
- 12 months OS [3]: 42.1%
- Median survival (OS) [3]: 9.9 months
- HR (OS) [3]: 1.15
- 12 months OS (Male (n = 89)): 56.4%
- Median TTF (Male (n = 89)): 3.7 months
- Median survival (OS) (Male (n = 89)): 14.1 months
- HR (OS) (Male (n = 89)): 0.70
- HR (TTF) (Male (n = 89)): 0.7
- 12 months OS (NS + Former smoker (<30 years)): 78%
- Median survival (OS) (NS + Former smoker (<30 years)): 20.2 months
- HR (OS) (NS + Former smoker (<30 years)): 0.37
- 12 months OS (NS + Former smoker (≤20 years)): 80%
- Median survival (OS) (NS + Former smoker (≤20 years)): 20.2 months
- HR (OS) (NS + Former smoker (≤20 years)): 0.23
- 12 months OS (NS + Former smoker (≤25 years)): 82.3%
- Median survival (OS) (NS + Former smoker (≤25 years)): 20.7 months
- HR (OS) (NS + Former smoker (≤25 years)): 0.29
- 12 months OS [4]: 83.0%
- Median survival (OS) [4]: 20.7 months
- HR (OS) [4]: 0.27
- 12 months OS (NSQ (n = 76)): 56.7%
- Median survival (OS) (NSQ (n = 76)): 13.4 months
- HR (OS) (NSQ (n = 76)): 0.58
- Median TTF (NSQ (n = 78)): 4.6 months
- HR (TTF) (NSQ (n = 78)): 0.61
- Median TTF (Never smoker): 5.6 months
- 12 months OS (Never smoker (NS)): 85.7%
- Median survival (OS) (Never smoker (NS)): 16.2 months
- HR (OS) (Never smoker (NS)): 0.2
- HR (TTF) (Never smoker): 0.51
- 12 months OS (OR to chemotherapy (n = 55)): 59% and 57.9%
- Median TTF (OR to chemotherapy (n = 55)): 5.3 months
- Median survival (OS) (OR to chemotherapy (n = 55)): 13.2 months
- HR (OS) (OR to chemotherapy (n = 55)): 0.72
- HR (TTF) (OR to chemotherapy (n = 55)): 0.56
- 12 months OS (SD to chemotherapy (n = 67)): 54%
- Median TTF (SD to chemotherapy (n = 67)): 3.6 months
- Median survival (OS) (SD to chemotherapy (n = 67)): 13.6 months
- HR (OS) (SD to chemotherapy (n = 67)): 0.82
- HR (TTF) (SD to chemotherapy (n = 67)): 0.95
- 12 months OS (SQ (n = 46)): 52.6%
- Median TTF (SQ (n = 46)): 3 months
- Median survival (OS) (SQ (n = 46)): 13.2 months
- HR (OS) (SQ (n = 46)): 1.41
- HR (TTF) (SQ (n = 46)): 1.18
